Source: patent US20260125425A1, “Carrier Peptide Fragment and Use Thereof” (TOAGOSEI CO., LTD., priority 2022, published 2026)
Primed or numbered codes have the meaning given here. FAM″ = C-terminal FAM dye

System: HeLa cells
Assay: cell membrane permeability in HeLa cells by flow cytometer
Type: cell-based, human
Conditions: 20-hour incubation; for MFI (median fluorescence intensity): 10 µM in culture solution, 0.5% DMSO, 37° C., FL2 detector
Method: As the eukaryotic cells, HeLa cells (established cell strain derived from a human cervical cancer cell) were used and the cell membrane permeability of the sample 1 was evaluated. In Example 1, the prepared sample solution I was used, and in Example 12, the FAM solution was used.
The HeLa cell was cultured in 10% fetal bovine serum (FBS)-containing Dulbecco's modified Eagle's medium (DMEM (Cat No. 044-29765, manufactured by FUJIFILM Wako Pure Chemical Corporation)), which is a culture medium.
The HeLa cell that adhered to a culture plate was cleaned with PBS and then, a 0.25%-trypsin/EDTA solution was added thereto, and incubation was performed for three minutes at 37° C. After the incubation, the aforementioned 10% FBS-containing DMEM was added to deactivate trypsin and then, five-minute centrifugal separation was performed at 150×g to precipitate the cells. After the supernatant generated by the centrifugal separation was removed, the 10% FBS-containing DMEM was added to the precipitate (cell pellet) to prepare a cell suspension of about 2×10^5 cells/mL. The cell suspension was added by 1 mL to a well of a commercially available six-hole (well) plate (manufactured by AGC TECHNO GLASS Co., Ltd.) so as to seed the cell (about 2× 10^5 cells/well). In addition, the 2 mM sample solution 1 was diluted with the 10% FBS-containing DMEM to prepare the sample solution 1 in which the concentration of the sample 1 was 20 μM. […]
Regarding the obtained cells (cell pellet), the cell membrane permeability of the sample 1 was analyzed using a flow cytometer. […]
Using the aforementioned flow cytometer, gating based on forward scatter (FSC) and side scatter (SSC) was performed to set a gate about a cell group to be analyzed, and the fluorescence intensity was measured about the cell group in this gate. […] The fluorescence intensity was measured using a fluorescence detector FL2 of the flow cytometer (optimum detection wavelength around 543 nm) capable of detecting the fluorescence wavelength of FAM. […]

Row | Substance | MFI (median fluorescence intensity) | flow cytometer histogram (FIG. 1), cell membrane permeability (10 µM, compared to FAM alone (Example 2))
1 | Ac-RKLAVYWSTYKRSR-FAM (Ac-RKLAVYWSTYKRSR-{FAM″}) [Example 1] | 14.5 | shifted to the right side compared to the histogram according to Example 2
2 | 5 (6)-carboxyfluorescein [Example 2, reference compound] | 10.6 | 
